Our source for the melting point values is patent US20020177594A1, “Inhibitors of histone deacetylase” (priority 2001, published 2002).

The structures appear in SMILES notation.

Molecule `O=C(NCCCCCC(=O)C(F)(F)F)OCC1c2ccccc2-c2ccccc21` [Example 89, 9H-fluoren-9-ylmethyl 7,7,7-trifluoro-6-oxoheptylcarbamate] showed a melting point of 83 to 88 °C.
Turning to `O=C(CCCCCCSc1ccccc1)c1ncco1` [Example 102, 1-(1,3-oxazol-2-yl)-7-(phenylsulfanyl)-1-heptanone], the melting point lay in the range of 39 to 40 °C.
To `O=C(CCCCCCS(=O)(=O)c1ccccc1)c1ncco1` [Example 103, 1-(1,3-oxazol-2-yl)-7-(phenylsulfonyl)-1-heptanone] belongs 55 to 56 °C; to `O=C(CCCCCCSc1ccc2ccccc2c1)c1ncco1` [Example 104, 7-(2-naphthylsulfanyl)-1-(1,3-oxazol-2-yl)-1-heptanone], 65 to 66 °C.
To `O=C(CCCCCCS(=O)(=O)c1ccc2ccccc2c1)c1ncco1` [Example 105, 7-(2-naphthylsulfonyl)-1-(1,3-oxazol-2-yl)-1-heptanone] belongs 75 to 76 °C.
To `CNC(=O)C(=O)CCCCCCSc1ccc2ccccc2c1` [Example 106, N-methyl-8-(2-naphthylsulfanyl)-2-oxooctanamide] belongs 94 to 95 °C; to `CNC(=O)C(=O)CCCCCCS(=O)(=O)c1ccc2ccccc2c1` [Example 107, N-methyl-8-(2-naphthylsulfonyl)-2-oxooctanamide], 108 to 109 °C.
In turn, `CNC(=O)C(=O)CCCCCCSc1ccc(-c2ccccc2)cc1` [Example 108, 8-((1,1′-biphenyl)-4-ylsulfanyl)-N-methyl-2-oxooctanamide] showed a melting point of 131 to 132 °C.
For `O=C(NCCCCCCC(=O)c1ncco1)c1cc2ccccc2[nH]1` [Example 110, N-(7-(1,3-oxazol-2-yl)-7-oxoheptyl)-1H-indole-2-carboxamide] the value was 153 to 156 °C; for `O=C(NCCCCCC(=O)c1ncco1)c1cc2ccccc2[nH]1` [Example 111, N-(6-(1,3-oxazol-2-yl)-6-oxohexyl)-1H-indole-2-carboxamide], 176 to 179 °C.
`CC(=O)C(=O)CCCCCCOc1ccc(-c2ccccc2)cc1` [Example 113, 9-((1,1′-biphenyl)-4-yloxy)-2,3-nonanedione] yielded a melting point of 110 to 111 °C.
`CNC(=O)C(=O)CCCCCCSc1nc(-c2ccccc2)cs1` [Example 183, N-methyl-2-oxo-8-((4-phenyl-1,3-thiazol-2-yl)thio)octanamide] came in with a melting point of 107 to 108 °C.
To `CNC(=O)C(=O)CCCCCCSc1nc2ccccc2s1` [Example 184, 8-(1,3-benzothiazol-2-ylthio)-N-methyl-2-oxooctanamide] belongs 83 to 84 °C; to `CNC(=O)C(=O)CCCCCCc1csc(-c2ccccc2)n1` [Example 196, N-methyl-2-oxo-8-(2-phenyl-1,3-thiazol-4-yl)octanamide], 70 to 72 °C.
Turning to `CNC(=O)C(=O)CCCCCO/N=C/c1ccc(-c2ccccc2)cc1` [Example 198, 7-((((1E)-1,1′-biphenyl-4-ylmethylidene)amino)oxy)-N-methyl-2-oxoheptanamide], the melting point was 86 to 87 °C.
To `CNC(=O)C(=O)CCCCCCc1cnc(-c2ccccc2)o1` [Example 199, N-methyl-2-oxo-8-(2-phenyl-1,3-oxazol-5-yl)octanamide] belongs 78 to 80 °C; to `CNC(=O)C(=O)CCCCCCc1cnc(-c2ccc(Br)cc2)o1` [Example 217, 8-(2-(4-bromophenyl)-1,3-oxazol-5-yl)-N-methyl-2-oxooctanamide], 90 to 92 °C; to `CNC(=O)C(=O)CCCCCCc1csc(-c2ccc(Cl)cc2)n1` [Example 218, 8-(2-(4-chlorophenyl)-1,3-thiazol-4-yl)-N-methyl-2-oxooctanamide], 77 to 81 °C.
